Assay [1] relates to Mycobacterium tuberculosis. Briefly: Antimycobacterial activity against isoniazid, rifampicin and streptomycin-resistant Mycobacterium tuberculosis after 7 days by resazurin method. To be noted: 168 h. Type of assay: functional. A general note: Resazurin is reduced to fluorescent resorufin, in cell work by metabolically active cells.
For assay [2], the system named is Mycobacterium tuberculosis. Briefly: Antimycobacterial activity against isoniazid, rifampicin and ethambutol-resistant Mycobacterium tuberculosis after 7 days by resazurin method. In kind it is functional. To be noted: 168 h.
The subject of assay [3] is Mycobacterium tuberculosis. Briefly: Antimycobacterial activity against multidrug-resistant Mycobacterium tuberculosis infected in BALB/c mouse assessed as reduction of bacterial load in lungs at 5 mg/kg/day, intragastrically after 1 month relative to control. Type of assay: functional, organism-based.

Values after ≈ are worked out from the molar mass of the structure shown. Active and inactive are the calls of the source.

As to `CCCCCCCCCCCCCCCC(=O)N1C2=C3NC(=O)/C(C)=C\C=C\[C@H](C)[C@H](O)[C@@H](C)[C@@H](O)[C@@H](C)[C@H](OC(C)=O)[C@H](C)[C@@H](OC)/C=C/O[C@@]4(C)Oc5c(C)c(O)c(c(c5C4=O)C2=NC12CCN(CC(C)C)CC2)C3=O`, the MIC in assay [1] and in assay [2] was greater than 10 µg/mL each time.

In the case of `CO[C@H]1/C=C/O[C@@]2(C)Oc3c(C)c(O)c4c(c3C2=O)C2=NC3(CCN(CC(C)C)CC3)NC2=C(NC(=O)/C(C)=C\C=C\[C@H](C)[C@H](O)[C@@H](C)[C@@H](O)[C@@H](C)[C@H](OC(C)=O)[C@@H]1C)C4=O` [RIFABUTIN], the MIC in assay [1] and in assay [2] was greater than 10 µg/mL each time. Moreover, the outcome in assay [3] was Active.

Regarding `CO[C@H]1/C=C/O[C@@]2(C)Oc3c(C)c(O)c4c(c3C2=O)C2=NC3(CCN(CC(C)C)CC3)NC2=C(NC(=O)/C(C)=C\C=C\[C@H](C)[C@H](O)[C@@H](C)[C@@H](O)[C@@H](C)[C@H](O)[C@@H]1C)C4=O`, the MIC in assay [1] and in assay [2] was greater than 10 µg/mL in each case.

On to `CO[C@H]1/C=C/O[C@@]2(C)Oc3c(C)c(O)c4c(c3C2=O)C2=NC3(CC[N+]([O-])(CC(C)C)CC3)NC2=C(NC(=O)/C(C)=C\C=C\[C@H](C)[C@H](O)[C@@H](C)[C@@H](O)[C@@H](C)[C@H](OC(C)=O)[C@@H]1C)C4=O` (stereo partly drawn), for which the MIC in assay [1] and in assay [2] was greater than 10 µg/mL throughout.

On to `CO[C@H]1/C=C/O[C@@]2(C)Oc3c(C)c(O)c4c(c3C2=O)C2=NC3(CC[N+]([O-])(CC(C)C)CC3)NC2=C(NC(=O)/C(C)=C\C=C\[C@H](C)[C@H](O)[C@@H](C)[C@@H](O)[C@@H](C)[C@H](O)[C@@H]1C)C4=O` (stereo partly drawn), for which the MIC in assay [1] and in assay [2] was greater than 10 µg/mL each time.

`CO[C@H]1/C=C/O[C@@]2(C)Oc3c(C)c(O)c4c(c3[C@H]2O)C2=NC3(CC[N+]([O-])(CC(C)C)CC3)NC2=C(NC(=O)/C(C)=C\C=C\[C@H](C)[C@H](O)[C@@H](C)[C@@H](O)[C@@H](C)[C@H](OC(C)=O)[C@@H]1C)C4=O` (stereo partly drawn): the MIC in assay [1] and in assay [2] was greater than 10 µg/mL in each case.

For `CO[C@H]1/C=C/O[C@@]2(C)Oc3c(C)c(O)c4c(c3[C@H]2O)C2=NC3(CCN(CC(C)C)CC3)N(C(C)=O)C2=C(NC(=O)/C(C)=C\C=C\[C@H](C)[C@H](O)[C@@H](C)[C@@H](O)[C@@H](C)[C@H](OC(C)=O)[C@@H]1C)C4=O`, the MIC in assay [1] and in assay [2] was 8 µg/mL (≈ 8.98 µM) each time.

For `CO[C@H]1/C=C/O[C@@]2(C)Oc3c(C)c(O)c4c(c3[C@H]2O)C2=NC3(CCN(CC(C)C)CC3)NC2=C(NC(=O)/C(C)=C\C=C\[C@H](C)[C@H](O)[C@@H](C)[C@@H](O)[C@@H](C)[C@H](O)[C@@H]1C)C4=O`, the MIC in assay [1] and in assay [2] was greater than 10 µg/mL each time.

With `CO[C@H]1/C=C/O[C@@]2(C)Oc3c(C)c(O)c4c(c3C2=O)C2=NC3(CCN(CC(C)C)CC3)N(C(C)=O)C2=C(NC(=O)/C(C)=C\C=C\[C@H](C)[C@H](O)[C@@H](C)[C@@H](O)[C@@H](C)[C@H](OC(C)=O)[C@@H]1C)C4=O`, the MIC in assay [1] and in assay [2] was greater than 10 µg/mL throughout. For the same compound, the result in assay [3] was Active.

As to `C=CCCCCCCCCC(=O)N1C2=C3NC(=O)/C(C)=C\C=C\[C@H](C)[C@H](O)[C@@H](C)[C@@H](O)[C@@H](C)[C@H](OC(C)=O)[C@H](C)[C@@H](OC)/C=C/O[C@@]4(C)Oc5c(C)c(O)c(c(c5C4=O)C2=NC12CCN(CC(C)C)CC2)C3=O`, the MIC in assay [1] and in assay [2] was 6 µg/mL (≈ 5.92 µM) throughout. Besides, the outcome in assay [3] was Active.

By MIC is commonly meant the smallest concentration in the dilution series that meets the test's criterion for growth inhibition. High values mean a need for much substance, low ones inhibition by little substance.

These data come from ChEMBL document CHEMBL1140892, “Synthesis and evaluation of rifabutin analogs against Mycobacterium avium and H(37)Rv, MDR and NRP Mycobacterium tuberculosis” (Bioorg Med Chem, 2009).
